# Laboratory results reported in patent US11427541B2, “Salt forms of a complement component C5A receptor” (CHEMOCENTRYX, INC., priority 2019, dated 2022).
# Where a name gives a salt, the structure may show the parent alone.
# Legend:
# [1] = in vivo rat PK study, aqueous liquid suspension with 0.5% w/v Hydroxypropyl Cellulose and 0.5% w/v Poloxamer F-68 (Example 8); details: oral 10 mg/kg of Compound 1, 5 mL/kg
# Procedure: (§1) An in vivo rat PK study was conducted to compare the PK profile and bioavailability of the free base crystalline form of Compound 1 against various salt forms of Compound 1 in an aqueous liquid suspension formulation, which contained 0.5% w/v Hydroxypropyl Cellulose (Klucel GF grade) and 0.5% w/v Poloxamer F-68 (BASF Kolliphor P188). Each animal was orally administrated 10 mg/kg of Compound 1 at 5 mL/kg dosing volume (a dosing concentration of 2 mg/mL).
# [2] = in vivo rat PK study, aqueous liquid suspension with 1% HPMC (Example 9); details: oral 10 mg/kg of Compound 1, 5 mL/kg, suspension in 1% HPMC
# Procedure: as §1, with “1% HPMC.” for “0.5% w/v Hydroxypropyl Cellulose (Klucel GF grade) and 0.5% w/v Poloxamer F-68 (BASF Kolliphor P188).”
# [3] = hygroscopicity and physical stability by dynamic vapor sorption (DVS); format: physicochemical; details: for DVS weight change from 5% to 95% relative humidity (RH): 5% to 95% RH; for DVS weight change from about 0% RH to about 75% relative humidity: about 0% to about 75% RH; for change in XRPD before and after the DVS measurement: data not shown; for DVS weight change from about 0% RH to about 55% relative humidity: about 0% to about 55% RH
# Procedure: To evaluate the hygroscopicity and physical stability of the collected crystals under different humidity, dynamic vapor sorption (DVS) data was collected at 25° C. after the sample was pre-equilibrated at 0% RH to remove unbounded water. DVS was measured using a VTI SGA-100 Vapor Sorption Analyzer. Sorption and desorption data was collected over a range from 5% to 95% RH at 10% RH increments under a nitrogen purge. The equilibrium criterion used for analysis was less than 0.0100% weight change in 5 minutes with a maximum equilibrium time of 3 hours. [table]
# [4] = stability of the crystals on storage and heating (HPLC, LCMS, NMR, XRPD); format: physicochemical; details: for decomposition on storage (HPLC, LCMS and NMR analysis): 40° C. and 75% relative humidity for 45 days; for physical form by XRPD before and after the stability tests: both samples of the stability tests
# Procedure: The stability of the collected crystals were tested by storing the crystals at 40° C. and 75% relative humidity for 45 days.
# [5] = as above; format: physicochemical
# [6] = in vivo, po, 10 mg/kg, suspension in 0.5% HPC / 0.5% Poloxamer F-68
# [7] = in vivo, po, 10 mg/kg, suspension in 0.5% HPC / 0.5% Poloxamer F-68, read-out: AUC0-t
# [8] = in vivo, po, 10 mg/kg, suspension in 0.5% HPC / 0.5% Poloxamer F-68, read-out: Cmax
# [9] = in vivo, po, 10 mg/kg, read-out: AUC0-t
# [10] = in vivo, po, 10 mg/kg, read-out: Cmax
# [11] = 55° C. in a vacuum oven for 24 h
# [12] = 75° C. for 1 week (open to air)
# [13] = suspension in 0.5% HPC / 0.5% Poloxamer F-68
# [14] = listed as Crystalline Camsylate
# [15] = listed as Crystalline Edisylate
# [16] = listed as Crystalline Napadisylate
# [17] = 25° C., listed as Napadisylate Salt of Compound 1 (Form I)
# [18] = listed as Crystalline Napsylate
# [19] = 25° C., listed as Napsylate Salt of Compound 1 (Form I)
change in XRPD before and after the DVS measurement [3],physical form by XRPD before and after the stability tests [4],"AUC0-t [1, 13] [ng·h/mL]","AUCinf [1, 13] [ng·h/mL]","Cmax [1, 13] [ng/mL]",Structure (SMILES),"decomposition on storage (HPLC, LCMS and NMR analysis) [4]","decomposition on heating (HPLC, LCMS and NMR analysis) [5, 11]","decomposition on heating (HPLC, LCMS and NMR analysis) [5, 12]",other results
No change in XRPD,remained the same,,,,"Cc1ccc(NC(=O)[C@H]2CCCN(C(=O)c3c(C)cccc3F)[C@H]2c2ccc(NC3CCCC3)cc2)cc1C(F)(F)F.O=S(=O)(O)c1ccccc1 [Besylate Salt (Form I), N-cyclopentyl-4-((2R,3S)-1-(2-fluoro-6-methylbenzoyl)-3-((4-methyl-3-(trifluoromethyl)phenyl)-carbamoyl)piperidin-2-yl)benzenaminium benzenesulfonate]",did not result in any appreciable decomposition,did not result in any appreciable decomposition,did not result in any appreciable decomposition,"AUC(0-inf) [1, 6]: 2600 ng·h/mL; AUC0-t [1, 7]: 2510 ng·h/mL; Cmax [1, 8]: 493 ng/mL; AUC(0-inf) ([2]; in vivo, po, 10 mg/kg): 2220 ng·h/mL; AUC0-t [2, 9]: 2170 ng·h/mL; Cmax [2, 10]: 390 ng/mL; DVS weight change from 5% to 95% relative humidity (RH) ([3]; 25° C.): 0.73%; DVS weight change from about 0% RH to about 75% relative humidity ([3]; 25° C.): about 0.5%"
No change in XRPD,remained the same,,,,"Cc1ccc(NC(=O)[C@H]2CCCN(C(=O)c3c(C)cccc3F)[C@H]2c2ccc(NC3CCCC3)cc2)cc1C(F)(F)F.Cc1ccc(S(=O)(=O)O)cc1 [Tosylate Salt (Form I), N-cyclopentyl-4-((2R,3S)-1-(2-fluoro-6-methylbenzoyl)-3-((4-methyl-3-(trifluoromethyl)phenyl)-carbamoyl)piperidin-2-yl)benzenaminium 4-methylbenzenesulfonate]",did not result in any appreciable decomposition,did not result in any appreciable decomposition,did not result in any appreciable decomposition,"AUC(0-inf) [1, 6]: 4150 ng·h/mL; AUC0-t [1, 7]: 4040 ng·h/mL; Cmax [1, 8]: 591 ng/mL; AUC(0-inf) ([2]; in vivo, po, 10 mg/kg): 3370 ng·h/mL; AUC0-t [2, 9]: 3310 ng·h/mL; Cmax [2, 10]: 649 ng/mL; DVS weight change from 5% to 95% relative humidity (RH) ([3]; 25° C.): 0.83%; DVS weight change from about 0% RH to about 75% relative humidity ([3]; 25° C.): about 0.58%"

# The remaining lines, values behind:
Structure (SMILES),change in XRPD before and after the DVS measurement [3],physical form by XRPD before and after the stability tests [4],"AUC0-t [1, 13] [ng·h/mL]","AUCinf [1, 13] [ng·h/mL]","Cmax [1, 13] [ng/mL]","decomposition on storage (HPLC, LCMS and NMR analysis) [4]","decomposition on heating (HPLC, LCMS and NMR analysis) [5, 11]","decomposition on heating (HPLC, LCMS and NMR analysis) [5, 12]",other results
"Cc1ccc(NC(=O)[C@H]2CCCN(C(=O)c3c(C)cccc3F)[C@H]2c2ccc(NC3CCCC3)cc2)cc1C(F)(F)F [Camsylate Salt (Form I), N-cyclopentyl-4-((2R,3S)-1-(2-fluoro-6-methylbenzoyl)-3-((4-methyl-3-(trifluoromethyl)phenyl)-carbamoyl)piperidin-2-yl)benzenaminium (1S)-(+)-10-camphorsulfonate]",No change in XRPD,remained the same,3870,3922,738,did not result in any appreciable decomposition,did not result in any appreciable decomposition,did not result in any appreciable decomposition,"AUC0-t [2, 14]: 2877 ng·h/mL; AUCinf [2, 14]: 3005 ng·h/mL; Cmax [2, 14]: 553 ng/mL; DVS weight change from 5% to 95% relative humidity (RH) ([3]; 25° C., listed as Camsylate Salt of Compound 1 (Form I)): 0.96%; DVS weight change from about 0% RH to about 65% relative humidity ([3]; 25° C., about 0% to about 65% RH): about 0.35%"
"Cc1ccc(NC(=O)[C@H]2CCCN(C(=O)c3c(C)cccc3F)[C@H]2c2ccc(NC3CCCC3)cc2)cc1C(F)(F)F [Crystalline Free Base, (2R,3S)-2-(4-(cyclopentylamino)phenyl)-1-(2-fluoro-6-methylbenzoyl)-N-(4-methyl-3-(trifluoromethyl)phenyl)piperidine-3-carboxamide]",,,,,,,,,AUC0-t [2]: 1361 ng·h/mL; AUCinf [2]: 1377 ng·h/mL; Cmax [2]: 168 ng/mL
"Cc1ccc(NC(=O)[C@H]2CCCN(C(=O)c3c(C)cccc3F)[C@H]2c2ccc(NC3CCCC3)cc2)cc1C(F)(F)F [Edisylate Salt (Form I), N-cyclopentyl-4-((2R,3S)-1-(2-fluoro-6-methylbenzoyl)-3-((4-methyl-3-(trifluoromethyl)phenyl)carbamoyl)piperidin-2-yl)benzenaminium ethane-1,2-disulfonate]",,,2839,3197,435,,,,"AUC0-t [2, 15]: 2126 ng·h/mL; AUCinf [2, 15]: 2162 ng·h/mL; Cmax [2, 15]: 525 ng/mL"
"Cc1ccc(NC(=O)[C@H]2CCCN(C(=O)c3c(C)cccc3F)[C@H]2c2ccc(NC3CCCC3)cc2)cc1C(F)(F)F [Napadisylate Salt (Form I), N-cyclopentyl-4-((2R,3S)-1-(2-fluoro-6-methylbenzoyl)-3-((4-methyl-3-(trifluoromethyl)phenyl)-carbamoyl)piperidin-2-yl)benzenaminium naphthalene-1,5-disulfonate]",No change in XRPD,remained the same,3417,3478,718,did not result in any appreciable decomposition,did not result in any appreciable decomposition,did not result in any appreciable decomposition,"AUC0-t [2, 16]: 5856 ng·h/mL; AUCinf [2, 16]: 7743 ng·h/mL; Cmax [2, 16]: 753 ng/mL; DVS weight change from 5% to 95% relative humidity (RH) [3, 17]: 1.42%; DVS weight change from about 0% RH to about 55% relative humidity [3, 17]: about 0.6%"
"Cc1ccc(NC(=O)[C@H]2CCCN(C(=O)c3c(C)cccc3F)[C@H]2c2ccc(NC3CCCC3)cc2)cc1C(F)(F)F [Napsylate Salt (Form I), N-cyclopentyl-4-((2R,3S)-1-(2-fluoro-6-methylbenzoyl)-3-((4-methyl-3-(trifluoromethyl)phenyl)-carbamoyl)piperidin-2-yl)benzenaminium naphthalene-2-sulfonate]",No change in XRPD,remained the same,4876,5057,778,did not result in any appreciable decomposition,did not result in any appreciable decomposition,did not result in any appreciable decomposition,"AUC0-t [2, 18]: 4277 ng·h/mL; AUCinf [2, 18]: 4589 ng·h/mL; Cmax [2, 18]: 601 ng/mL; DVS weight change from 5% to 95% relative humidity (RH) [3, 19]: 0.65%; DVS weight change from about 0% RH to about 55% relative humidity [3, 19]: about 0.2%"
